Data from US5192799A, “Coumaran group containing amine compounds and their acid addition salts and quaternary ammonium salts and the use thereof as anti arrhythmic agents and as psychotropic agents” (Mitsui Petrochemical Industries, Ltd., priority 1987, dated 1993).
Like-named read-outs stand apart in the source and are kept apart here.

Key:
Purkinje fiber = assay: Effect on APD (APD75, field-stimulated right ventricular free wall); type: cell-based, adult mongrel dog; details: for activation at 1 µg/mL / activation at 3 µg/mL / activation at 10 µg/mL: Canis lupus familiaris, purkinje, 20 min, read-out: APD75 % (percent change in APD75)
Description: The pharmacological effects of the compounds of this invention represented by general formula (1) were studied. By using the heart of an adult mongrel dog, the activity of the compounds of general formula (1) were tested in vitro and in vivo. The heart of an anaethetized dog was extracted and suspended in a chamber at 37° C. in Tyrode's solution. The drug was added to Tyrode's solution being perfused through the heart specimen, and electrophysiological effects of the drug on cardiac action potential duration (APD) and maximum rate of depolarization were studied. An anaethetized dog was cut open at the chest.
An adult mongrel dog was anaethetized with intravenous administration of pentobarbital, 30 mg/kg. The heart was quickly removed, and the right ventricular free wall was dissected in the Tyrode's solution. The right ventricular free wall was fixed within an incubator at 37° C., and field stimulation at 1 Hz was carried out. Intracellular potentials were measured by piercing glass microelectrodes (10-20 megaohms) into the Purkinje fiber and the wave form of cardiac action potential drawn on an oscilloBraun tube via an amplifier was analyzed by a computer. Value of APD was obtained at 75% of full repolarization (APD75). The drug was added to Tyrode's solution (20 ml) perfused through the specimen. The effect of the drug was expressed by a percent change in APD75 after incubation for 20 minutes with the control value of APD before application of the drug being taken as 100%.

in vivo = details: mouse, in vivo, po
Description: By using male ddY-strain 5-week old mice (3 to 4 per group), the compounds of general formula (1) were each administered orally or intraperitoneally as a solution in saline or as a suspension in methyl cellulose, and 24 hours after the administration, the toxicity of the compounds was evaluated.

[1] = tested on: right ventricle (effective refractory period); assay: Activity on ERP of the right ventricle; type: in vivo, adult mongrel dog; details: Canis lupus familiaris, iv, read-out: ERP % (ERP prolonging activity)
Description: The pharmacological effects of the compounds of this invention represented by general formula (1) were studied. By using the heart of an adult mongrel dog, the activity of the compounds of general formula (1) were tested in vitro and in vivo. The heart of an anaethetized dog was extracted and suspended in a chamber at 37° C. in Tyrode's solution. The drug was added to Tyrode's solution being perfused through the heart specimen, and electrophysiological effects of the drug on cardiac action potential duration (APD) and maximum rate of depolarization were studied. An anaethetized dog was cut open at the chest. […] In an anaethetized and open-chested adult mongrel dug, a silver-silver chloride electrode was sutured to the right ventricle, and ventricular pacing was performed at a stimulation interval of 400 msec for a duration time of 4 msec, twice diastolic threshold. Then, a small amount of alcohol was injected through the sinus artery to extinguish the pacemaker activity, and under ventricular pacing, ERP was measured. Ten stimulations were taken as one train, and the interval between trains when the response to the first stimulation disappeared was defined as ERP. […] ERP before drug administration (intravenously or intraduodenally) was taken as 100%, and ERP prolonging activity of the drugs was expressed by %.

[2] = dose 1 μg/ml, 20 minutes incubation, 37° C., 1 Hz, control before drug = 100%
[3] = dose 3 μg/ml, 20 minutes incubation, 37° C., 1 Hz, control before drug = 100%
[4] = dose 10 μg/ml, 20 minutes incubation, 37° C., 1 Hz, control before drug = 100%
[5] = LD50 p.o., p.o., 24 hours after administration, male ddY mice
[6] = 0.1 mg/kg i.v., ERP before drug = 100%
[7] = 0.3 mg/kg i.v., ERP before drug = 100%
[8] = 1 mg/kg i.v., ERP before drug = 100%
[9] = 3 mg/kg i.v., ERP before drug = 100%

SMILES | activation at 1 µg/mL (Purkinje fiber; [2]) | activation at 3 µg/mL (Purkinje fiber; [3]) | activation at 10 µg/mL (Purkinje fiber; [4]) | LD50 at 24 h (in vivo; [5]) | change in vivo at 0.1 mg/kg [1, 6] | change in vivo at 0.3 mg/kg [1, 7] | change in vivo at 1 mg/kg [1, 8] | change in vivo at 3 mg/kg [1, 9] | other results
CCCCCCCN(CC)CCOc1ccc2c(c1)OCC2=O [Compound 196] | 7% | 10% | 11% | ~300 mg/kg | 5% | 5% | 18% | – | –
CC(C)C1CCN(CCCOc2ccc3c(c2)OCC3=O)CC1 [Compound 1278] | – | 9% | 24% | > 300 mg/kg | 1.6 ± 1.6% | 4.8 ± 1.6% | 13 ± 2.4% | 19.8 ± 0.6% | –
CCCCCCC[N+](CC)(CC)CCCOc1ccc2c(c1)OCC2O (centres unmarked) [Compound 470] | 13% | 16% | 20% | > 300 mg/kg | 0% | 0% | 2% | 8% | –
CCCCCCC[N+](CC)(CC)CCCOc1ccc2oc(=O)cc(C)c2c1 [Compound 630] | – | 25% | 48% | > 300 mg/kg | 3% | 5% | 8% | – | –
CCOC(=O)C1CCN(CCCOc2ccc3c(c2)OCC3=O)CC1 [Compound 1282] | – | 11% | 19% | > 300 mg/kg | 0% | 0% | 6% | 6% | –
CCC1CCN(CCCOc2ccc3c(c2)OCC3=O)CC1 [Compound 1274] | 6% | 19% | – | – | 0% | 6.7% | 13.3% | 13.3% | LD50 at 24 h (in vivo): < 300 mg/kg
CC(C)CN(CCCOc1ccc2c(c1)OCC2=O)CC(C)C [Compound 132] | 7% | 18% | 21% | > 300 mg/kg | 2.4 ± 2.4% | 2.4 ± 2.4% | 4.8 ± 4.8% | 4.8 ± 4.8% | –
CCCCCCCN(CC)CC(O)COc1ccc2c(c1)OCC2=O.Cc1ccc(S(=O)(=O)O)cc1 (centres unmarked) [Compound 216, 6-[3-(N-ethyl-N-heptylamino)-2-hydroxypropyloxy]coumaran-3-one p-toluenesu lfonate] | – | – | – | 300 to 600 mg/kg | – | – | – | – | activation at 1 µg/mL (Purkinje fiber): 13%; activation at 3 µg/mL (Purkinje fiber): 17%; change in vivo at 0.1 mg/kg [1]: 8%; change in vivo at 0.3 mg/kg [1]: 8%; change in vivo at 1 mg/kg [1]: 8%; change in vivo at 3 mg/kg [1]: 8%
CCCCN(CCCOc1ccc2c(c1)OCC2=O)CC(C)C [Compound 128] | 9% | 18% | – | > 300 mg/kg | – | – | – | – | –
CC1CCN(CCCOc2ccc3c(c2)OCC3=O)CC1 [Compound 1122] | 4% | 15% | 42% | > 300 mg/kg | – | – | 9% | 15% | –
CCCCCCCN(CC)CCCCOc1ccc2c(c1)OCC2=O [Compound 212] | 4% | 8% | – | 300 to 600 mg/kg | 7.1 ± 3.4% | 7.1 ± 3.4% | 13.8 ± 3.6% | 13.8 ± 3.6% | –
O=C1COc2cc(OCCCN3CCCC4CCCCC43)ccc21 (centres unmarked) [Compound 1158] | – | 10% | 13% | > 300 mg/kg | – | – | – | – | –
CC1CCN(CCCOc2ccc3c(c2)OCC3=O)CC(C)C1 (centres unmarked) [Compound 1194] | 16% | 19% | – | > 300 mg/kg | – | – | – | – | –
O=C1COc2cc(OCCCN3CCCCC3)ccc21 [Compound 1110] | – | – | – | > 300 mg/kg | – | – | – | – | APD75 % (percent change in APD75) (Purkinje fiber; [3]): 10%; APD75 % (percent change in APD75) (Purkinje fiber; [4]): 20%
C=CCN(CCCOc1ccc2c(c1)OCC2=O)C1CCCCC1 [Compound 160] | 0% | 7% | 11% | > 300 mg/kg | – | – | – | – | –
